Laboratory results as given in ChEMBL document CHEMBL1909046, “DrugMatrix in vitro pharmacology data”.

How the values were obtained:
Cytochrome P450 2D6 = Cytochrome P450 2D6 (Homo sapiens, UniProt P10635); details: bti-tn-5b1-4; further: in other assays of this panel Not Active means under 50% inhibition at 10 µM
[1] = biological target: T1, Alpha-1B adrenergic receptor (Rattus norvegicus, UniProt P15823); experiment: DRUGMATRIX: Alpha-1B adrenergic receptor radioligand binding (ligand: prazosin); assay type: cell membranes, Wistar, Liver, Membrane; details: Not Active = under 50% inhibition at 10 µM
T1 sequence (P15823 whole entry): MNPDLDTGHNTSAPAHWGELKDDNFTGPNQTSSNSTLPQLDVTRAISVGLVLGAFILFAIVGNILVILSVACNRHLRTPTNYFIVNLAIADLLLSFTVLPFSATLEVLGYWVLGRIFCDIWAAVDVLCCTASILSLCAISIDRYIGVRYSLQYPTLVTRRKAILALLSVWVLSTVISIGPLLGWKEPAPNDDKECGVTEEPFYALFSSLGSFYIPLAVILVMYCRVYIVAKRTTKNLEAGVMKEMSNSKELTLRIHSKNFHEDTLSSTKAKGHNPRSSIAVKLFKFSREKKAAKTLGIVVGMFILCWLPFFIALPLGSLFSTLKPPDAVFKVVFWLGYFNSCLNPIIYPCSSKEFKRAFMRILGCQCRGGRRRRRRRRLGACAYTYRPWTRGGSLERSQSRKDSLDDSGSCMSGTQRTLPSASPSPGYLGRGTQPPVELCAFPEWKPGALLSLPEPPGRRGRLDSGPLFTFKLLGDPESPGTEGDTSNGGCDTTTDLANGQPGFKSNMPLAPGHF

[2] = DRUGMATRIX: Calcium Channel Type L, Benzothiazepine radioligand binding (ligand: [3H] Diltiazem); assay type: cell membranes, Rattus norvegicus, Wistar, Brain, Membrane; details: Not Active = under 50% inhibition at 10 µM
[3] = biological target: Platelet-activating factor receptor (Homo sapiens, UniProt P25105); experiment: biochemical; assay type: tissue-based; details: platelet; further: in other assays of this panel Not Active means under 50% inhibition at 10 µM
Sequence of Platelet-activating factor receptor (P25105 whole entry): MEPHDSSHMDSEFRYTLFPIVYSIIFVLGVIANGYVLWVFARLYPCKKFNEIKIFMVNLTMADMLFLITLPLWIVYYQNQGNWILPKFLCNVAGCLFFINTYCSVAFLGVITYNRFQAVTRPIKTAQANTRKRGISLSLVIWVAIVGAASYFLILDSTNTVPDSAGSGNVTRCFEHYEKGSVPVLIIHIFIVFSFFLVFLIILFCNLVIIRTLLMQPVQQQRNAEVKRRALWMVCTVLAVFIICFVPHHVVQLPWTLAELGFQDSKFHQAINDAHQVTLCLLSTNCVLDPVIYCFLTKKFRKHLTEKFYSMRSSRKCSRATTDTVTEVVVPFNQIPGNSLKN

[4] = DRUGMATRIX: GABAA, Chloride Channel, TBOB radioligand binding (ligand: [3H] TBOB); assay type: cell membranes, Rattus norvegicus, Wistar, Cerebral cortex, Membrane; details: Not Active = under 50% inhibition at 10 µM
Cytochrome P450 2C19 = Cytochrome P450 2C19 (Homo sapiens, UniProt P33261); details: bti-tn-5b1-4; further: in other assays of this panel Not Active means under 50% inhibition at 10 µM
Sequence of Cytochrome P450 2C19 (P33261 whole entry): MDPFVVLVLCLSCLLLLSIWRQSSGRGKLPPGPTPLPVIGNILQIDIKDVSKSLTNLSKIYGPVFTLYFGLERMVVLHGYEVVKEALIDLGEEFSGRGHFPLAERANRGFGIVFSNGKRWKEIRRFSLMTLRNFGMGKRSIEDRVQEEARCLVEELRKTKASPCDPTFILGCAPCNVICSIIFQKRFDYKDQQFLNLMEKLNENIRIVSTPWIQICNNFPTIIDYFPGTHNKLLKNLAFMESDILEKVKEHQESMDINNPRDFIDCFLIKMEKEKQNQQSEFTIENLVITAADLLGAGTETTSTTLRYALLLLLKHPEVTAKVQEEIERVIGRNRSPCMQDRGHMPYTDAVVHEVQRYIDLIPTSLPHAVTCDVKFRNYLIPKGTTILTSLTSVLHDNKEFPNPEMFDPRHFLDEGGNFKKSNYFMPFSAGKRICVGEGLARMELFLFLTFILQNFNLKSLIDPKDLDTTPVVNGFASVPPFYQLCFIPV

[5] = biological target: T2, 3-hydroxy-3-methylglutaryl-coenzyme A reductase (Homo sapiens, UniProt P04035); parameters: species or system Escherichia coli;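 further: enzyme inhibition assay of HMG-CoA reductase using radiolabeled [14C]HMG-CoA as substrate; in other assays of this panel Not Active means under 50% inhibition at 10 µM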
T2 sequence (P04035 whole entry): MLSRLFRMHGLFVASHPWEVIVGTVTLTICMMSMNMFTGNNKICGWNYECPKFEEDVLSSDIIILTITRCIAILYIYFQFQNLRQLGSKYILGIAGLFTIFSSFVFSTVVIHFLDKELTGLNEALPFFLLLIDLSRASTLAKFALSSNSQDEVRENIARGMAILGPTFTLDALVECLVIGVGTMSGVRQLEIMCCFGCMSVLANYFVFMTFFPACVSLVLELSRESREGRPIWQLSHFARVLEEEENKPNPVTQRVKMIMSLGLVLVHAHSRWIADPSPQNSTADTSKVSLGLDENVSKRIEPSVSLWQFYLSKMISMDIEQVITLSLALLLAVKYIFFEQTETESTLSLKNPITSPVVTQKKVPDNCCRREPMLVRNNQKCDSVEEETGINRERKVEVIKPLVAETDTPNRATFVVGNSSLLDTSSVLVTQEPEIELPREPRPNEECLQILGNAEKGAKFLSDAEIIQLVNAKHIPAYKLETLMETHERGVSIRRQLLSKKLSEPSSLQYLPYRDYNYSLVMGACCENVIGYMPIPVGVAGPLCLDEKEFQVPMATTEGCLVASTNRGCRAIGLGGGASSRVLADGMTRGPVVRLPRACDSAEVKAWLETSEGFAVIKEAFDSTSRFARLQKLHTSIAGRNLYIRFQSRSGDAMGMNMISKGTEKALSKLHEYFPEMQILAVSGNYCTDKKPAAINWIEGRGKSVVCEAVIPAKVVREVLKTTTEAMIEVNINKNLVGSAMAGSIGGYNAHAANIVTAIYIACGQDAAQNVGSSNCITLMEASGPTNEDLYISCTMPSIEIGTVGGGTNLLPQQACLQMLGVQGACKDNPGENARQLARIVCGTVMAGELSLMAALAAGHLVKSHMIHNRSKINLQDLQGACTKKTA

Sequence of Cytochrome P450 2D6 (P10635 whole entry): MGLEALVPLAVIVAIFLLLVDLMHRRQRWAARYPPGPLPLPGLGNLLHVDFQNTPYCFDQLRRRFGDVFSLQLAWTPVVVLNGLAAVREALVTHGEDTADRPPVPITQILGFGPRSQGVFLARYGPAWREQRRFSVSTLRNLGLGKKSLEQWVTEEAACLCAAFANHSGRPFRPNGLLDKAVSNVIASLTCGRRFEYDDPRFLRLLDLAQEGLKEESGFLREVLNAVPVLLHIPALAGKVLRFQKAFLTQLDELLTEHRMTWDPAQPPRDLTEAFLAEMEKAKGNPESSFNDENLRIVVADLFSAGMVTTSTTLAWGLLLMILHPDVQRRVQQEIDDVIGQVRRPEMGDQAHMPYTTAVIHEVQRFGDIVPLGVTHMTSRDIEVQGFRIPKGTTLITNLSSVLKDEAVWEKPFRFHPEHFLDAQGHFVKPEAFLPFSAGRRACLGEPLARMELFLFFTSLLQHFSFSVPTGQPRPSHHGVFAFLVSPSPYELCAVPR

SMILES	IC50 (Cytochrome P450 2D6)	Ki (Cytochrome P450 2D6)	IC50 [1]	IC50 [2]	Ki [2]	IC50 [3]	IC50 [4]	Ki [4]	IC50 (Cytochrome P450 2C19)	Ki (Cytochrome P450 2C19)	IC50 [5]	IC50 ([2]; read-out: IC50) [nM]	Ki ([2]; read-out: Ki) [nM]	IC50 ([1]; read-out: IC50) [nM]	Ki ([1]; read-out: Ki) [nM]
COc1ccccc1OCC(O)COC(N)=O (stereo unspecified) [METHOCARBAMOL]	Not Active	Not Active	Not Active	Not Active	Not Active	Not Active	Not Active	Not Active	Not Active	Not Active	Not Active	–	–	–	–
CO[C@@]1(NC(=O)CSCC#N)C(=O)N2C(C(=O)O)=C(CSc3nnnn3C)CS[C@@H]21 [CEFMETAZOLE]	Not Active	Not Active	Not Active	Not Active	Not Active	Not Active	Not Active	Not Active	Not Active	Not Active	Not Active	–	–	–	–
C=C(CC)C(=O)c1ccc(OCC(=O)O)c(Cl)c1Cl [ETHACRYNIC ACID]	Not Active	Not Active	Not Active	Not Active	Not Active	Not Active	Not Active	Not Active	Not Active	Not Active	Not Active	–	–	–	–
Oc1ccccc1O [CATECHOL]	Not Active	Not Active	Not Active	Not Active	Not Active	Not Active	Not Active	Not Active	Not Active	Not Active	Not Active	–	–	–	–
CC(C)(CO)C(O)C(=O)NCCCO (stereo unspecified) [PANTHENOL]	Not Active	Not Active	Not Active	Not Active	Not Active	Not Active	Not Active	Not Active	Not Active	Not Active	Not Active	–	–	–	–
CN1C(=O)CN=C(c2ccccc2)c2cc(Cl)ccc21 [DIAZEPAM]	–	–	Not Active	Not Active	Not Active	Not Active	Not Active	Not Active	–	–	Not Active	–	–	–	–
C[C@@H]1CC[C@H]2[C@@H](C)C(=O)O[C@@H]3O[C@@]4(C)CC[C@@H]1[C@]32OO4 [ARTEMISININ]	–	–	Not Active	Not Active	Not Active	Not Active	Not Active	Not Active	–	–	Not Active	–	–	–	–
Cc1cn[nH]c1 [FOMEPIZOLE]	–	–	Not Active	Not Active	Not Active	Not Active	Not Active	Not Active	–	–	Not Active	–	–	–	–
COc1ccccc1OCC(O)CO (stereo unspecified) [GUAIFENESIN]	–	–	Not Active	Not Active	Not Active	Not Active	Not Active	Not Active	–	–	Not Active	–	–	–	–
N[C@@H](Cc1ccc(F)cc1)C(=O)O	–	–	Not Active	Not Active	Not Active	Not Active	Not Active	Not Active	–	–	Not Active	–	–	–	–
CCOC(=O)C1=C(C)NC(C)=C(C(=O)OC)C1c1cccc(Cl)c1Cl (stereo unspecified) [FELODIPINE]	–	–	Not Active	–	–	Not Active	Not Active	Not Active	–	–	Not Active	23	20	–	–
CCC[C@@H]1C[C@@H](C(=O)N[C@@H]([C@H]2O[C@H](SC)[C@H](O)[C@@H](O)[C@H]2O)[C@H](C)Cl)N(C)C1 [CLINDAMYCIN]	–	–	Not Active	Not Active	Not Active	Not Active	Not Active	Not Active	–	–	Not Active	–	–	–	–
CC[C@H](C)C(=O)O[C@H]1C[C@H](O)C=C2C=C[C@H](C)[C@H](CC[C@@H](O)C[C@@H](O)CC(=O)O)[C@H]21 [PRAVASTATIN]	Not Active	Not Active	Not Active	Not Active	Not Active	Not Active	Not Active	Not Active	Not Active	Not Active	–	–	–	–	–
OCCN1CCN(CCCN2c3ccccc3Sc3ccc(Cl)cc32)CC1 [PERPHENAZINE]	–	–	Not Active	Not Active	Not Active	Not Active	Not Active	Not Active	–	–	Not Active	–	–	–	–
CC(C)(Sc1cc(C(C)(C)C)c(O)c(C(C)(C)C)c1)Sc1cc(C(C)(C)C)c(O)c(C(C)(C)C)c1 [PROBUCOL]	Not Active	Not Active	Not Active	Not Active	Not Active	Not Active	Not Active	Not Active	–	–	Not Active	–	–	–	–
CN1C[C@H](C(=O)N[C@]2(C)O[C@@]3(O)[C@@H]4CCCN4C(=O)[C@H](Cc4ccccc4)N3C2=O)C[C@@H]2c3cccc4[nH]cc(c34)C[C@H]21 [DIHYDROERGOTAMINE]	Not Active	Not Active	–	Not Active	Not Active	Not Active	Not Active	Not Active	–	–	Not Active	–	–	8.09	4.48
C/C=C\c1ccc(O)c(OC)c1 [ISOEUGENOL]	–	–	Not Active	Not Active	Not Active	Not Active	Not Active	Not Active	–	–	Not Active	–	–	–	–
O=C(c1ccccc1Cl)N1CCC(Cc2ccccc2)CC1	Not Active	Not Active	Not Active	Not Active	Not Active	Not Active	Not Active	Not Active	–	–	Not Active	–	–	–	–
CC[C@H](C)C(=O)O[C@H]1C[C@@H](C)C=C2C=C[C@H](C)[C@H](CC[C@@H]3C[C@@H](O)CC(=O)O3)[C@H]21 [LOVASTATIN]	Not Active	Not Active	Not Active	Not Active	Not Active	Not Active	Not Active	Not Active	–	–	–	–	–	–	–
CC[C@]1(O)CC[C@H]2[C@@H]3CCC4=CCCC[C@@H]4[C@H]3CC[C@@]21C	Not Active	Not Active	Not Active	Not Active	Not Active	Not Active	Not Active	Not Active	–	–	Not Active	–	–	–	–
CNC(=C[N+](=O)[O-])NCCSCc1csc(CN(C)C)n1 [NIZATIDINE]	Not Active	Not Active	Not Active	Not Active	Not Active	Not Active	Not Active	Not Active	–	–	Not Active	–	–	–	–
N=C(N)N/N=C/c1c(Cl)cccc1Cl [GUANABENZ]	Not Active	Not Active	–	Not Active	Not Active	Not Active	Not Active	Not Active	Not Active	Not Active	Not Active	–	–	–	–
Cc1cnc(C(=O)NCCc2ccc(S(=O)(=O)NC(=O)NC3CCCCC3)cc2)cn1 [GLIPIZIDE]	–	–	Not Active	Not Active	Not Active	Not Active	Not Active	Not Active	–	–	–	–	–	–	–
COc1ccc(Cc2nccc3cc(OC)c(OC)cc23)cc1OC [PAPAVERINE]	Not Active	Not Active	Not Active	Not Active	Not Active	Not Active	Not Active	Not Active	–	–	Not Active	–	–	–	–
O=C(O)Cc1ccc(-c2ccccc2)cc1 [FELBINAC]	Not Active	Not Active	Not Active	Not Active	Not Active	Not Active	Not Active	Not Active	–	–	Not Active	–	–	–	–
